The values below come from ChEMBL document CHEMBL1124317, “Rationale for the synthesis and preliminary biological evaluation of highly active new antitumor nitrosoureido sugars” (J Med Chem, 1989).

Assay [1] has as its system Mus musculus. The assay is described as follows: Anti tumor activity l when treated to mice with L1210 leukemia with 1.25 mg/kg dose of compound intraperitoneally was expressed as percent of treated to control (T/C %). To be noted: route intraperitoneal. The class given is functional.
The subject of assay [2] is Mus musculus. In words: Anti tumor activity l when treated to mice with L1210 leukemia with 2.5 mg/kg dose of compound intraperitoneally was expressed as percent of treated to control (T/C %). The class given is functional. To be noted: route intraperitoneal.
Assay [3] has as its system Mus musculus. The assay is described as follows: Anti tumor activity l when treated to mice with L1210 leukemia with 5 mg/kg dose of compound intraperitoneally was expressed as percent of treated to control (T/C %). The class given is functional. To be noted: route intraperitoneal.
The test system of assay [4] is Mus musculus. In words: The number of L1210 leukemia mice survived after 30 days with compound in aqueous solution injected by a dose of 5 mg/kg intraperitoneally; 7/10. As to conditions: route intraperitoneal. The class given is functional.
Assay [5] concerns Mus musculus. In words: The number of L1210 leukemia mice survived after 30 days with compound injected by a dose of 1.25 mg/kg intraperitoneally; 0/8. The class given is functional. As to conditions: route intraperitoneal.
Assay [6] concerns Mus musculus. In words: The number of L1210 leukemia mice survived after 30 days with compound injected by a dose of 2.5 mg/kg intraperitoneally; 0/8. The class given is functional. As to conditions: route intraperitoneal.
For assay [7], the system named is Mus musculus. The assay is described as follows: The number of L1210 leukemia mice survived after 30 days with compound injected by a dose of 5 mg/kg intraperitoneally; 8/8. The class given is functional. To be noted: route intraperitoneal.
In assay [8] the test system is Mus musculus. The assay is described as follows: The number of L1210 leukemia mice survived after 60 days with compound in aqueous solution injected by a dose of 10 mg/kg intraperitoneally; 0/10. The class given is functional. To be noted: route intraperitoneal.
The subject of assay [9] is Mus musculus. The assay is described as follows: Anti tumor activity in olive oil when treated to mice with L1210 leukemia with 10 mg/kg dose of compound intraperitoneally was expressed as percent of treated to control (T/C %). The class given is functional. As to conditions: route intraperitoneal.
Assay [10] deals with Mus musculus. In words: Anti tumor activity in olive oil when treated to mice with L1210 leukemia with 5 mg/kg dose of compound intraperitoneally was expressed as percent of treated to control (T/C %). The class given is functional. To be noted: route intraperitoneal.
Assay [11] has as its system Mus musculus. The assay is described as follows: Median survival time of the non surviving mice; treated with 5 mg/kg of compound in olive oil to mice with L1210 leukemia; 23-49. The class given is functional.
Assay [12] relates to Mus musculus. In words: The number of L1210 leukemia mice survived after 60 days with compound in aqueous solution injected by a dose of 5 mg/kg intraperitoneally; 4/10. The class given is functional. To be noted: route intraperitoneal.
Assay [13] concerns Mus musculus. The assay is described as follows: The number of L1210 leukemia mice survived after 60 days with compound injected by a dose of 5 mg/kg intraperitoneally; 4/8. The class given is functional. To be noted: route intraperitoneal.
For assay [14], the system named is Mus musculus. In words: The number of L1210 leukemia mice survived after 30 days with compound injected by a dose of 0.625 mg/kg intraperitoneally; 0/8. The class given is functional. To be noted: route intraperitoneal.
Assay [15] has as its system Mus musculus. In words: Anti tumor activity l when treated to mice with L1210 leukemia with 0.625 mg/kg dose of compound intraperitoneally was expressed as percent of treated to control (T/C %). The class given is functional. As to conditions: route intraperitoneal.
The subject of assay [16] is Mus musculus. The assay is described as follows: The number of L1210 leukemia mice survived after 30 days with compound in aqueous solution injected by a dose of 10 mg/kg intraperitoneally; 0/10. The class given is functional. As to conditions: route intraperitoneal.
Assay [17] has as its system Mus musculus. In words: Median survival time of the non surviving mice; treated with 10 mg/kg of compound in olive oil to mice with L1210 leukemia; 15-25. The class given is functional.
Assay [18] deals with Mus musculus. The assay is described as follows: Median survival time of the non surviving mice; treated with 5 mg/kg of compound to mice with L1210 leukemia; 43-54. The class given is functional.
Assay [19] concerns Mus musculus. In words: Median survival time of the non surviving mice; treated with 0.625 mg/kg of compound to mice with L1210 leukemia; 10-11. The class given is functional.
The subject of assay [20] is Mus musculus. In words: Median survival time of the non surviving mice; treated with 1.25 mg/kg of compound to mice with L1210 leukemia; 11-15. The class given is functional.
Assay [21] deals with Mus musculus. In words: Median survival time of the non surviving mice; treated with 2.5 mg/kg of compound to mice with L1210 leukemia; 17-25. The class given is functional.
Assay [22] is described as follows: Mortality range of the mice with L1210 leukemia treated with 5 mg/kg of dose intraperitoneally with no of mice survived/no of mice treated; 0/8. The class given is functional. As to conditions: route intraperitoneal.
Assay [23] can be described thus: Number of mice died/no of mice treated with 10 mg/kg of compound in aqueous solution intraperitoneally with L1210 leukemia; 1/10. The class given is functional. To be noted: route intraperitoneal.
The nature of assay [24]: Mortality range of the mice with L1210 leukemia treated with 1.25 mg/kg of dose intraperitoneally with no of mice survived/no of mice treated; 0/8. The class given is functional. To be noted: route intraperitoneal.
The subject of assay [25] is Mus musculus. In words: Mortality range of the mice with L1210 leukemia treated with 2.5 mg/kg of dose intraperitoneally with no of mice survived/no of mice treated; 0/8. The class given is functional. As to conditions: route intraperitoneal.
A short description of assay [26]: Mortality range of the mice with L1210 leukemia treated with 0.625 mg/kg of dose intra peritoneally with no of mice survived/no of mice treated; 0/8. The class given is functional.
A short description of assay [27]: Number of mice died/no of mice treated with 5 mg/kg of compound in aqueous solution intraperitoneally with L1210 leukemia; 0/10. The class given is functional. As to conditions: route intraperitoneal.
Assay [28] relates to Mus musculus. In words: The number of B16 melanocarcinoma mice survived after 60 days with compound in olive oil injected by a dose of 20 mg/kg intraperitoneally; 2/20. To be noted: route intraperitoneal. The class given is functional.
Assay [29] concerns Mus musculus. In words: Anti tumor activity in olive oil when treated to mice with B16 melanocarcinoma with 20 mg/kg dose of compound intraperitoneally was expressed as percent of treated to control (T/C %). The class given is functional. To be noted: route intraperitoneal.
For assay [30], the system named is Mus musculus. The assay is described as follows: The number of B16 melanocarcinoma mice survived after 30 days with compound in olive oil injected by a dose of 20 mg/kg intraperitoneally; 13/20. The class given is functional. To be noted: route intraperitoneal.
In assay [31] the test system is Mus musculus. In words: The number of Lewis lung mice survived after 30 days with compound in olive oil injected by a dose of 20 mg/kg intraperitoneally; 18/20. The class given is functional. As to conditions: route intraperitoneal.
Assay [32] has as its system Mus musculus. The assay is described as follows: The number of Lewis lung mice survived after 60 days with compound in olive oil injected by a dose of 20 mg/kg intraperitoneally; 15/20. The class given is functional. To be noted: route intraperitoneal.
Assay [33] deals with Mus musculus. In words: The number of L1210 Leukemia mice survived after 60 days with compound in olive oil injected by a dose of 20 mg/kg intraperitoneally; 10/15. The class given is functional. As to conditions: route intraperitoneal.
The species named for assay [34] is Mus musculus. In words: Median survival time of the non surviving mice; there are two deaths on day 27, one death on day 29, and two deaths on day 41. The class given is functional, organism-based.
For assay [35], the system named is Mus musculus. In words: Median survival time of the non surviving mice; treated with 20 mg/kg of compound in olive oil to mice with B16 Melanocarcinoma; 14-55. The class given is functional.
Assay [36] deals with Mus musculus. The assay is described as follows: Ratio of mice died to that of mice treated with 20 mg/kg of compound in olive oil intraperitoneally with B16 Melanocarcinoma; 0/20. The class given is functional. To be noted: route intraperitoneal.
In assay [37] the test system is Mus musculus. The assay is described as follows: Ratio of mice died to that of mice treated with 20 mg/kg of compound in olive oil intraperitoneally with L1210 leukemia tumor; 0/15. The class given is functional. To be noted: route intraperitoneal.
Assay [38] has as its system Mus musculus. The assay is described as follows: Ratio of mice died to that of mice treated with 20 mg/kg of compound in olive oil intraperitoneally with Lewis lung; 0/20. The class given is functional. As to conditions: route intraperitoneal.
The test system of assay [39] is Mus musculus. The assay is described as follows: The number of L1210 Leukemia mice survived after 30 days with compound in olive oil injected by a dose of 20 mg/kg intraperitoneally; 12/15. The class given is functional. To be noted: route intraperitoneal.

Regarding `CO[C@H]1C[C@@H](NC(=O)N(CCCl)N=O)[C@H](O)[C@@H](C)O1`, the T/C was 144% in the assay with Mus musculus [1]; 244% in the assay with Mus musculus [2]; 539% in the assay on Mus musculus [3]; 198% with Mus musculus [9]; 519% in the assay with Mus musculus [10]; 118% in the assay on Mus musculus [15]. Moreover, the Survivals with Mus musculus [4] is 7; in the assay on Mus musculus [5], 0; in the assay on Mus musculus [6], 0; in the assay on Mus musculus [7], 8; with Mus musculus [8], 0; in the assay on Mus musculus [12], 4. In addition, the values for the Survivals in the assay on Mus musculus [13], with Mus musculus [14] and in the assay on Mus musculus [16] were 4, 0 and 0, respectively. Besides, the Median survival time came out at 49 in the assay on Mus musculus [11]; 18.75 in the assay on Mus musculus [17]; 48.5 in the assay on Mus musculus [18]; 10.6 in the assay on Mus musculus [19]; 12.9 with Mus musculus [20]; 21.9 in the assay on Mus musculus [21]. Also, the Ratio is given as 0 in assay [22]; 1 in assay [23]; 0 in [24]; 0 in [26]; 0 in [27]. Moreover, in the assay with Mus musculus [25], the Mortality ratio is given as 0.
`COC1CC(NC(=O)N(CCCl)N=O)C(O)C(CNC(=O)N(CCCl)N=O)O1` (centres undefined): the Survivals turned out to be 2 with Mus musculus [28]; 13 with Mus musculus [30]; 18 in the assay on Mus musculus [31]; 15 with Mus musculus [32]; 10 in the assay with Mus musculus [33]; 12 in the assay on Mus musculus [39]. Besides, in the assay with Mus musculus [29], the T/C is 225%. Also, the Median survival time result in the assay listed under Mus musculus [34] is “there are two deaths on day 27, one death on day 29, and two deaths on day 41”; with Mus musculus [35], 31.37. Further, the Ratio with Mus musculus [36], in the assay on Mus musculus [37] and with Mus musculus [38] was 0 each time.

In general, T/C refers to the result in the treated group divided by that in the control group, in per cent.
